Laboratory results published in patent US20250129033A1, “METAP2 INHIBITORS AND USES THEREOF” (Yissum Research Development Company of the Hebrew …, priority 2022, published 2025).

Molecular target: T1, MetAp2 in A375 cancer cells (Homo sapiens, UniProt P50579)
T1 construct: host or cells: A375 cell homogenate (RIPA supernatant, 5 µg protein)
Assay: MetAp2 enzymatic activity in A375 cell homogenate
Assay type: biochemical
Details: 2.5 μM
Method: A375 and MDA-MB-231 were sub cultivated using trypsin, then centrifuge and counted. To obtain a homogenate containing an equivalent cell number, cells were resuspended in an appropriate volume of cold RIPA containing a protease inhibitor cocktail. Insoluble cellular components were removed by centrifugation at 15,000 RPM for 10 min at 4° C. The protein content of the supernatant was determined according to the Bradford protein assay using BSA as the standard.
The enzymatic assay was performed using 5 μg protein per sample as described previously. […] An increase of fluorescence, due to substrate degradation during the enzymatic assay, was measured every 20 seconds for 1 h and 30 min at 37° C. using a plate reader (Wallac 1420 VICTOR plate reader, Perkin-Elmer Life Sciences, USA). […]
A375 and MDA-MB-231 were sub-cultivated using trypsin, then centrifuged and counted. […] The protein content of the supernatant was determined according to the Bradford protein assay using BSA as the standard. […] An increase of fluorescence, due to substrate degradation during the enzymatic assay, was measured every 20 seconds for 1 h and 30 min at 37° C. using a plate reader (Wallac 1420 VICTOR plate reader, Perkin-Elmer Life Sciences, USA). […]

T1 sequence (P50579 whole entry): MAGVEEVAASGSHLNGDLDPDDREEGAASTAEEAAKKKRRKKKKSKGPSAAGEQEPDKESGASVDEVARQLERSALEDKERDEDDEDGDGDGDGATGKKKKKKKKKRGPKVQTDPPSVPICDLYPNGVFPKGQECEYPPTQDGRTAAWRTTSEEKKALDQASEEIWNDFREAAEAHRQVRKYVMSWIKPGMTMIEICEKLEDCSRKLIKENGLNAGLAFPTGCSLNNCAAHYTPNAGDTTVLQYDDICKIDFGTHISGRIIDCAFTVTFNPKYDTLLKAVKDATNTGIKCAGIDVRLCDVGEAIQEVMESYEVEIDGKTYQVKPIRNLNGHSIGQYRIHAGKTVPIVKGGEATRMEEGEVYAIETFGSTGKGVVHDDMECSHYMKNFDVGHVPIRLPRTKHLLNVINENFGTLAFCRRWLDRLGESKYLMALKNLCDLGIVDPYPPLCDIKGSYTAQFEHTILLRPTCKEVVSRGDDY

Structure (SMILES): COC1C(OC(=O)CC23CC4CC(CC(C4)C2)C3)CCC2(CO2)C1C1(C)OC1CC=C(C)C (centres unmarked) [AD-3281, Fumagillol-1-adamantylacetate]
- inhibition of MetAp2 activity in A375 after 10 minutes (10 minutes of exposure): Significant inhibition
- reduction of MetAp2 enzymatic activity in A375 (over the course of 1 h): 64%
